Values after ≈ are worked out from the molar mass of the structure shown.
Columns and labels:
Assay in all cases: Bacterial growth minimal inhibitory concentration (broth microdilution, CLSI M7-A7)
Assay type in all cases: cell-based
[1] = tested on: Staphylococcus aureus ATCC29213; conditions: methicillin-sensitive and quinolone-sensitive strain; for MIC: Staphylococcus aureus, ATCC29213, cation-adjusted Mueller-Hinton Broth, read-out: MIC for S. aureus ATCC29213
Method: (§1) Minimal Inhibitory Concentrations (MICs; mg/L) were determined in cation-adjusted Mueller-Hinton Broth by a microdilution method following the description given in “Methods for Dilution Antimicrobial Susceptibility Tests for Bacteria that Grow Aerobically”, Approved standard, 7th ed., Clinical and Laboratory Standards Institute (CLSI) Document M7-A7, Wayne, Pa., USA (2006).
(§2) All Example compounds were tested against several Gram positive and Gram negative bacteria. […] Staphylococcus aureus A798, Enterococcus faecium A949 and Acinetobacter baumannii T6474 are multiply-resistant strains (in particular quinolone-resistant), while Moraxella catarrhalis A894 is a quinolone-sensitive strain and Staphylococcus aureus ATCC29213 is a methicillin-sensitive and quinolone-sensitive strain.

[2] = tested on: Staphylococcus aureus A798; conditions: multiply-resistant strain (in particular quinolone-resistant); for MIC: Staphylococcus aureus, A798, cation-adjusted Mueller-Hinton Broth, read-out: MIC for S. aureus A798
Method: as §1, §2

[3] = tested on: Acinetobacter baumannii T6474; conditions: multiply-resistant strain (in particular quinolone-resistant); for MIC: Acinetobacter baumannii, T6474, cation-adjusted Mueller-Hinton Broth
Method: as §1, §2

[4] = tested on: Moraxella catarrhalis A894; conditions: quinolone-sensitive strain; for MIC: Moraxella catarrhalis, A894, cation-adjusted Mueller-Hinton Broth
Method: as §1, §2

[5] = tested on: Enterococcus faecium A949; conditions: multiply-resistant strain (in particular quinolone-resistant); for MIC: Enterococcus faecium, A949, cation-adjusted Mueller-Hinton Broth, read-out: MIC for E. faecium A949
Method: as §1, §2

[6] = cation-adjusted Mueller-Hinton Broth

Compound | MIC [1] [µg/mL] | MIC [2] [µg/mL] | MIC [3] [µg/mL] | MIC [4] [µg/mL] | MIC [5] [µg/mL] | MIC for S. aureus ATCC29213 [1, 6] [µg/mL] | MIC for S. aureus A798 [2, 6] [µg/mL] | MIC for A. baumannii T6474 [3, 6] [µg/mL] | MIC for M. catarrhalis A894 [4, 6] | MIC for E. faecium A949 [5, 6] [µg/mL]
COc1cccc(-c2cc(CNCC[C@@H]3CN(c4ccc5c(c4)NC(=O)CS5)C(=O)O3)ccn2)c1 [Example 39, 6-[(R)-5-(2-{[2-(3-methoxy-phenyl)-pyridin-4-ylmethyl]-amino}-ethyl)-2-oxo-oxazolidin-3-yl]-4H-benzo[1,4]thiazin-3-one] | 1 (≈ 2.04 µM) | 1 (≈ 2.04 µM) | 2 (≈ 4.08 µM) | 0.125 (≈ 0.255 µM) | 4 (≈ 8.15 µM) |  |  |  |  | 
O=C1COc2ccc(N3C[C@H](CCNCc4cccc(-c5cccc(OCCCCO)c5)c4)OC3=O)nc2N1 [Example 67, 6-[(S)-5-(2-{[3′-(4-hydroxy-butoxy)-biphenyl-3-ylmethyl]-amino}-ethyl)-2-oxo-oxazolidin-3-yl]-4H-pyrido[3,2-b][1,4]oxazin-3-one] | 1 (≈ 1.88 µM) | 0.5 (≈ 0.939 µM) | 2 (≈ 3.76 µM) | 0.063 (≈ 0.118 µM) | 8 (≈ 15 µM) |  |  |  |  | 
COc1cc(-c2cccc(CNCC[C@@H]3CN(c4ccc5c(c4)NC(=O)CS5)C(=O)O3)c2)ccc1C(N)=O [Example 29, 3-methoxy-3′-({2-[(R)-2-oxo-3-(3-oxo-3,4-dihydro-2H-benzo[1,4]thiazin-6-yl)-oxazolidin-5-yl]-ethylamino}-methyl)-biphenyl-4-carboxylic acid amide] | 1 (≈ 1.88 µM) | 2 (≈ 3.76 µM) | 2 (≈ 3.76 µM) | 0.063 (≈ 0.118 µM) | 8 (≈ 15 µM) |  |  |  |  | 
COc1cccc(-c2cccc(CNCC[C@H]3CN(c4ccc5c(n4)NC(=O)CO5)C(=O)O3)c2O)n1 [Example 93, 6-((S)-5-{2-[2-hydroxy-3-(6-methoxy-pyridin-2-yl)-benzylamino]-ethyl}-2-oxo-oxazolidin-3-yl)-4H-pyrido[3,2-b][1,4]oxazin-3-one] | ≤ 0.016 | ≤ 0.016 | 0.063 (≈ 0.128 µM) | ≤ 0.016 | 0.25 (≈ 0.509 µM) |  |  |  |  | 
COc1cnnc(-c2ccnc(CNCC[C@H]3CN(c4ccc5c(n4)NC(=O)CO5)C(=O)O3)c2)c1 [Example 111, (S)-6-(5-(2-(((4-(5-methoxypyridazin-3-yl)pyridin-2-yl)methyl)amino)ethyl)-2-oxooxazolidin-3-yl)-2H-pyrido[3,2-b][1,4]oxazin-3(4H)-one] | 0.25 (≈ 0.524 µM) | 0.5 (≈ 1.05 µM) | 0.25 (≈ 0.524 µM) | 0.031 (≈ 0.0649 µM) | 8 (≈ 16.8 µM) |  |  |  |  | 
N#Cc1cccc(-c2cccc(CNCCc3cn(-c4ccc5c(n4)NC(=O)CO5)c(=O)o3)c2O)n1 [Example 96, 6-[2-hydroxy-3-({2-[2-oxo-3-(3-oxo-3,4-dihydro-2H-pyrido[3,2-b][1,4]oxazin-6-yl)-2,3-dihydro-oxazol-5-yl]-ethylamino}-methyl)-phenyl]-pyridine-2-carbonitrile] | 0.031 (≈ 0.064 µM) | 0.031 (≈ 0.064 µM) | 0.125 (≈ 0.258 µM) | ≤ 0.016 | 1 (≈ 2.06 µM) |  |  |  |  | 
COC(=O)c1cccc(-c2cccc(CNCC[C@H]3CN(c4ccc5c(n4)NC(=O)CO5)C(=O)O3)c2)c1 [Example 77, 3′-({2-[(S)-2-oxo-3-(3-oxo-3,4-dihydro-2H-pyrido[3,2-b][1,4]oxazin-6-yl)-oxazolidin-5-yl]-ethylamino}-methyl)-biphenyl-3-carboxylic acid methyl ester] | 0.5 (≈ 0.995 µM) | 0.25 (≈ 0.497 µM) | 2 (≈ 3.98 µM) | ≤ 0.063 | 4 (≈ 7.96 µM) |  |  |  |  | 
COc1cc(C#N)cc(-c2cccc(CNCC[C@@H]3CN(c4ccc5c(c4)NC(=O)CS5)C(=O)O3)c2)n1 [Example 2, 2-methoxy-6-[3-({2-[(R)-2-oxo-3-(3-oxo-3,4-dihydro-2H-benzo[1,4]thiazin-6-yl)-oxazolidin-5-yl]-ethylamino}-methyl)-phenyl]-isonicotinonitrile] | ≤ 0.016 | ≤ 0.016 | 0.25 (≈ 0.485 µM) | ≤ 0.016 | 0.5 (≈ 0.97 µM) |  |  |  |  | 
N#Cc1cnnc(-c2cccc(CNCC[C@H]3CN(c4ccc5c(n4)NC(=O)CO5)C(=O)O3)c2)c1 [Example 80, 6-[3-({2-[(S)-2-oxo-3-(3-oxo-3,4-dihydro-2H-pyrido[3,2-b][1,4]oxazin-6-yl)-oxazolidin-5-yl]-ethylamino}-methyl)-phenyl]-pyridazine-4-carbonitrile] | 0.5 (≈ 1.06 µM) | 0.5 (≈ 1.06 µM) | 0.25 (≈ 0.53 µM) | 0.031 (≈ 0.0658 µM) | > 8 |  |  |  |  | 
N#CC1(COc2cccc(-c3cccc(CNCC[C@H]4CN(c5ccc6c(n5)NC(=O)CO6)C(=O)O4)c3)c2)CCC1 [Example 71, 1-[3′-({2-[(S)-2-oxo-3-(3-oxo-3,4-dihydro-2H-pyrido[3,2-b][1,4]oxazin-6-yl)-oxazolidin-5-yl]-ethylamino}-methyl)-biphenyl-3-yloxymethyl]-cyclobutanecarbonitrile] | 1 (≈ 1.81 µM) | 1 (≈ 1.81 µM) | > 8 | 0.25 (≈ 0.452 µM) | 8 (≈ 14.5 µM) |  |  |  |  | 
N#Cc1ncccc1-c1cccc(CNCC[C@H]2CN(c3ccc4c(n3)NC(=O)CO4)C(=O)O2)c1 [Example 73, 3-[3-({2-[(S)-2-oxo-3-(3-oxo-3,4-dihydro-2H-pyrido[3,2-b][1,4]oxazin-6-yl)-oxazolidin-5-yl]-ethylamino}-methyl)-phenyl]-pyridine-2-carbonitrile] | 0.5 (≈ 1.06 µM) | 2 (≈ 4.25 µM) | 1 (≈ 2.13 µM) | ≤ 0.063 | 16 (≈ 34 µM) |  |  |  |  | 
N#Cc1cccc(-c2cccc(CNCC[C@H]3CN(c4ccc5c(n4)NC(=O)CO5)C(=O)O3)c2O)n1 [Example 92, 6-[2-hydroxy-3-({2-[(S)-2-oxo-3-(3-oxo-3,4-dihydro-2H-pyrido[3,2-b][1,4]oxazin-6-yl)-oxazolidin-5-yl]-ethylamino}-methyl)-phenyl]-pyridine-2-carbonitrile] | 0.031 (≈ 0.0637 µM) | ≤ 0.016 | 0.063 (≈ 0.129 µM) | ≤ 0.016 | 0.5 (≈ 1.03 µM) |  |  |  |  | 
COc1cccc(-c2cccc(CNCCc3nn(-c4ccc5c(n4)NC(=O)CO5)c(=O)o3)c2)n1 [Example 51, 6-(5-{2-[3-(6-methoxy-pyridin-2-yl)-benzylamino]-ethyl}-2-oxo-[1,3,4]oxadiazol-3-yl)-4H-pyrido[3,2-b][1,4]oxazin-3-one] | 0.5 (≈ 1.05 µM) | 1 (≈ 2.11 µM) | 0.5 (≈ 1.05 µM) | ≤ 0.016 | 2 (≈ 4.22 µM) |  |  |  |  | 
COc1cccc(-c2cc(CNCC[C@H]3CN(c4ccc5c(n4)NC(=O)CO5)C(=O)O3)ccn2)n1 [Example 87, 6-((S)-5-{2-[(6′-methoxy-[2,2]bipyridinyl-4-ylmethyl)-amino]-ethyl}-2-oxo-oxazolidin-3-yl)-4H-pyrido[3,2-b][1,4]oxazin-3-one] | 0.125 (≈ 0.262 µM) | 0.063 (≈ 0.132 µM) | 0.25 (≈ 0.525 µM) | ≤ 0.016 | 2 (≈ 4.2 µM) |  |  |  |  | 
COc1ccnc(-c2cccc(CNCC[C@@H]3CN(c4ccc5c(c4)NC(=O)CS5)C(=O)O3)c2)c1 [Example 14, 6-((R)-5-{2-[3-(4-methoxy-pyridin-2-yl)-benzylamino]-ethyl}-2-oxo-oxazolidin-3-yl)-4H-benzo[1,4]thiazin-3-one] | 0.125 (≈ 0.255 µM) | 0.125 (≈ 0.255 µM) | 0.25 (≈ 0.51 µM) | ≤ 0.016 | 2 (≈ 4.08 µM) |  |  |  |  | 
COc1cc(OC)nc(-c2cccc(CNCC[C@@H]3CN(c4ccc5c(c4)NC(=O)CS5)C(=O)O3)c2)n1 [Example 27, 6-((R)-5-{2-[3-(4,6-dimethoxy-pyrimidin-2-yl)-benzylamino]-ethyl}-2-oxo-oxazolidin-3-yl)-4H-benzo[1,4]thiazin-3-one] | 0.063 (≈ 0.121 µM) | 0.031 (≈ 0.0594 µM) | 0.5 (≈ 0.959 µM) | ≤ 0.016 | 1 (≈ 1.92 µM) |  |  |  |  | 
N#Cc1cccc(-c2cccc(CNCCc3nn(-c4ccc5c(n4)NC(=O)CO5)c(=O)o3)c2)c1 [Example 56, 3′-({2-[5-oxo-4-(3-oxo-3,4-dihydro-2H-pyrido[3,2-b][1,4]oxazin-6-yl)-4,5-dihydro-[1,3,4]oxadiazol-2-yl]-ethylamino}-methyl)-biphenyl-3-carbonitrile] | 0.5 (≈ 1.07 µM) | 2 (≈ 4.27 µM) | 1 (≈ 2.13 µM) | ≤ 0.016 | 4 (≈ 8.54 µM) |  |  |  |  | 
COc1cc(C#N)cc(-c2cccc(CNCC[C@@H]3CN(c4ccc5c(c4)NC(=O)CS5)C(=O)O3)c2)c1 [Example 9, 5-methoxy-3′-({2-[(R)-2-oxo-3-(3-oxo-3,4-dihydro-2H-benzo[1,4]thiazin-6-yl)-oxazolidin-5-yl]-ethylamino}-methyl)-biphenyl-3-carbonitrile] | 0.031 (≈ 0.0602 µM) | 0.031 (≈ 0.0602 µM) | 0.25 (≈ 0.486 µM) | ≤ 0.016 | 1 (≈ 1.94 µM) |  |  |  |  | 
COc1cccc(-c2cccc(CNCCc3cn(-c4ccc5c(n4)NC(=O)CO5)c(=O)o3)c2)n1 [Example 35, 6-(5-{2-[3-(6-methoxy-pyridin-2-yl)-benzylamino]-ethyl}-2-oxo-oxazol-3-yl)-4H-pyrido[3,2-b][1,4]oxazin-3-one] | 0.063 (≈ 0.133 µM) | 0.063 (≈ 0.133 µM) | 0.125 (≈ 0.264 µM) | ≤ 0.016 | 1 (≈ 2.11 µM) |  |  |  |  | 
6-(5-{2-[(3′-methoxy-biphenyl-3-ylmethyl)-amino]-ethyl}-2-oxo-oxazol-3-yl)-4H-pyrido[3,2-b][1,4]oxazin-3-one [Example 34] |  |  |  |  |  | 0.125 | 0.125 | 0.25 | ≦0.016 mg/L | 1

— patent US9527867B2, “Antibacterial biaromatic derivatives” (Actelion Pharmaceuticals Ltd., priority 2013, dated 2016)
